Molecules are shown by their SMILES.

The values below come from patent publication US20100061994A1, “MEDICAL USES OF 39-DESMETHOXYRAPAMYCIN AND ANALOGUES THEREOF” (priority 2005, published 2010).

One assay concerns U87-MG. As to the kind of experiment: Glioma orthotopically xenografted in nude mice, MRI tumour volume. The conditions noted are these: 3 mg/kg/inj IV, (Q1D×3)×5W, MRI at D23, mean of 4 values. It is filed as in vivo. Here is the method: The test compound was dissolved in ethanol (0.027 mL/mg compound) and vortexed for 20 min until the solution was clear. Ethanolic solutions were aliquoted as appropriate and stored at −20° C.
The test substance and control vehicle were administered intravenously (IV, bolus) by injection into the caudal vein of the test mice. An injection volume of 10 mL/kg was used, based on the most recent body weight of mice.
The cell line used for the study was U87-MG, a glioblastoma cell line initiated by J. Ponten from a […] glioblastoma from a person (Poten et al., 1968).
Mice were stereotaxically injected with U87-MG cells at D, 24 to 48 hours after a whole body irradiation with a γ-source (2.5 Gy, Co^60, INRA BRETENIERE, Dijon). For the stereotaxic injection of tumour cells, mice were anesthetised by an intraperitoneal injection of Ketamine 100 mg/kg (Ketamine500®, Ref 043KET204, Centravet, France) and Xylazine 5 mg/kg (Rompun®, Ref 002ROM001, Centravet, France) in 0.9% NaCl solution at 10 mL/kg/inj. […]
After tripilot acquisitions, a turboRare T2 weighted sequence was performed. […] The tumour volume was determined by manually drawing a region of interest (ROI) around the tumour in each slice and by summation of all the surfaces.
Additionally the MRI analysis was used to calculate the average calculated tumour volume per treatment group, the results are summarised in Table 13 below. […]

The test system of the next assay is SW-620. In words: Monolayer assay Protocol 2 (SRB), high MDR-expressing cell lines. The class given is cell-based. The note with it: Homo sapiens; Colon SW-620, high MDR-expressing, 48 h. Here is the method: (§1) The human tumor cell lines of the National Cancer Institute (NCI) cancer screening panel were grown in RPMI 1640 medium containing 5% fetal bovine serum and 2 mM L-glutamine (Boyd and Paull, 1995). Cells were inoculated into 96 well microtiter plates in 0.1 mL at plating densities ranging from 5,000 to 40,000 cells/well depending on the doubling time of individual cell lines. After cell inoculation, the microtiter plates were incubated at 37° C., 5% CO2, 95% air and 100% relative humidity for 24 h prior to addition of experimental drugs.
(§2) After 24 h, two plates of each cell line were fixed in situ with trichloroacetic acid (TCA), to represent a measurement of the cell population for each cell line at the time of drug addition (Tz). Experimental drugs were solubilized in dimethyl sulfoxide at 400-fold the desired final maximum test concentration and stored frozen prior to use. At the time of drug addition, an aliquot of frozen concentrate was thawed and diluted to twice the desired final maximum test concentration with complete medium containing 0.05 mg/mL gentamicin. Additional four, 10-fold or ½ log serial dilutions were made to provide a total of five drug concentrations plus control. […]
(§3) Following drug addition, the plates were incubated for an additional 48 h at 37° C., 5% CO2, 95% air, and 100% relative humidity. […] Bound stain was subsequently solubilized with 10 mM trizma base, and the absorbance was read on an automated plate reader at a wavelength of 515 nm. […] Using the seven absorbance measurements [time zero, (Tz), control growth, (C), and test growth in the presence of drug at the five concentration levels (Ti)], the percentage growth was calculated at each of the drug concentrations levels. Percentage growth inhibition was calculated as:
(§4) Three dose response parameters were calculated for each experimental agent. […] The drug concentration resulting in total growth inhibition (TGI) was calculated from Ti=Tz. […]

A further assay concerns UO-31. The assay is described as above. The class given is cell-based. The note with it: Homo sapiens; Renal UO-31, high MDR-expressing, 48 h. The method, then: as §1, §2, §3, §4
For a further assay, the system named is HOP-62. The assay is described as above. The class given is cell-based. The conditions noted are these: Homo sapiens; NSCLC HOP-62, high MDR-expressing, 48 h. Here is the method: as §1, §2, §3, §4

Take `COC1CC2CCC(C)C(O)(O2)C(=O)C(=O)N2CCCCC2C(=O)OC(C(C)CC2CCC(O)CC2)CC(=O)C(C)C=C(C)C(O)C(OC)C(=O)C(C)CC(C)C=CC=CC=C1C` (stereo not shown) [39-desmethoxyrapamycin]: in the assay on U87-MG, the “average calculated tumour volume, Day 23 (mm^3)” value is on record as 1.25 mm^3.
Turning to `CO[C@H]1C[C@@H]2CC[C@@H](C)[C@@](O)(O2)C(=O)C(=O)N2CCCC[C@H]2C(=O)O[C@H]([C@H](C)C[C@@H]2CC[C@@H](O)[C@H](OC)C2)CC(=O)[C@H](C)/C=C(\C)[C@@H](O)[C@@H](OC)C(=O)[C@H](C)C[C@H](C)/C=C/C=C/C=C/1C` [Rapamycin], the results for the GI50 with SW-620, in the assay with UO-31 and with HOP-62 were 25100 nM, 100 nM and 234 nM, respectively.
